Measurements as given in ChEMBL document CHEMBL4425117 (Bioorg Med Chem Lett, 2016).

What was measured:
[1] = target: T1, Endothelin receptor type B (Sus scrofa, UniProt P35463); assay: Displacement of 125I-ET1 from pig ETB receptor transfected in grivet COS7 cells; type: cell-based
T1 sequence (P35463 whole entry): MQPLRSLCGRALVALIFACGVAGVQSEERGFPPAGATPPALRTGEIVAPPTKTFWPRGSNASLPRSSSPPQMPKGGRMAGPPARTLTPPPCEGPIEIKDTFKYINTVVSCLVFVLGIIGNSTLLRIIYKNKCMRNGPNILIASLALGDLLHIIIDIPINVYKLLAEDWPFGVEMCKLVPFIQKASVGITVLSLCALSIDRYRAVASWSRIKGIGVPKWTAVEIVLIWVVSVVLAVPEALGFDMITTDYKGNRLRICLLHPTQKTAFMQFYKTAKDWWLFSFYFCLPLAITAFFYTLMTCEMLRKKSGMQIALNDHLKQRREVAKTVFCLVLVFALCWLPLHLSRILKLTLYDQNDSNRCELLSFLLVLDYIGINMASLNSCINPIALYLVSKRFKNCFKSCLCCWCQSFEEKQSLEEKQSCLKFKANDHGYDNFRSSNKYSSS

[2] = target: T2, Endothelin receptor type B (Rattus norvegicus, UniProt P21451); assay: Displacement of 125I-ET1 from rat aortic ring ETB receptor
T2 sequence (P21451 whole entry): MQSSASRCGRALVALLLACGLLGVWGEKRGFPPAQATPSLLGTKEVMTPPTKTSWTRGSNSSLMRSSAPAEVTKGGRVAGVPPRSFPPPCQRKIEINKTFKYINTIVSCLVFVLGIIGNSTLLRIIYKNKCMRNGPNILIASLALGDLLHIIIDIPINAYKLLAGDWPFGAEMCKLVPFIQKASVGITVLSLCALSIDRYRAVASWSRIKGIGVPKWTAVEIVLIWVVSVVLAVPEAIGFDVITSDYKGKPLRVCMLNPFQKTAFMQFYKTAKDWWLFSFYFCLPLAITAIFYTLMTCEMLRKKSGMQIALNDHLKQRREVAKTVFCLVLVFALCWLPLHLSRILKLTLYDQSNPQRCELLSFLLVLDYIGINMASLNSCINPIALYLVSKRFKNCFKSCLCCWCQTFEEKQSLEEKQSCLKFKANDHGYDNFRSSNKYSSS

[3] = target: T3, Endothelin-1 receptor (Homo sapiens, UniProt P25101); assay: Displacement of 125I-ET1 from human smooth muscle ETA receptor expressed in fall armyworm sf9 cell membranes
T3 sequence (P25101 whole entry): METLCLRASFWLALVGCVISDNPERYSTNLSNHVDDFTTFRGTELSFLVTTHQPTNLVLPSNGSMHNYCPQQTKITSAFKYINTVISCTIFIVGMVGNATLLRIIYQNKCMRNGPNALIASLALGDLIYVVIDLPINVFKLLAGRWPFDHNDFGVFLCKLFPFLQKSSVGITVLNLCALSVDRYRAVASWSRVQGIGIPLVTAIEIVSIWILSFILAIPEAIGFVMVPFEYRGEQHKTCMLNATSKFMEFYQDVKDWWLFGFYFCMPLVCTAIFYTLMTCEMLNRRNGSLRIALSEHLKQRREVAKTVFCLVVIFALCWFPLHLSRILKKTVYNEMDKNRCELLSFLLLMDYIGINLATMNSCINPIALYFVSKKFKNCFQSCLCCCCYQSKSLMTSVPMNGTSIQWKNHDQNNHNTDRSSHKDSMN

[4] = target: T4, Endothelin receptor type B (Homo sapiens, UniProt P24530); assay: Antagonist activity at human ETB receptor expressed in CHO cells in presence of ET1; type: cell-based
T4 sequence (P24530 whole entry): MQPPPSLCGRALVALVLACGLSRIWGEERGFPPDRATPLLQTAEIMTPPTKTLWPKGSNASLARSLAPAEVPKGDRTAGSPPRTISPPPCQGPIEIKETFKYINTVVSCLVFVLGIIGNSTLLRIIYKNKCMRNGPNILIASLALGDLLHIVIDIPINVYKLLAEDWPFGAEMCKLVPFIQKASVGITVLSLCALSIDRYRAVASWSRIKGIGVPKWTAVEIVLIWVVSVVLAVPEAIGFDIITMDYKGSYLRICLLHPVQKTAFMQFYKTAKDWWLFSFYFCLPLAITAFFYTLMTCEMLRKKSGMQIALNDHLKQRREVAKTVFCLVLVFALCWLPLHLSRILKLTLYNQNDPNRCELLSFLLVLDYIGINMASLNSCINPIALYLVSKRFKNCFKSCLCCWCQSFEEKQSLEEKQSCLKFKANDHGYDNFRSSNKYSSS

[5] = target: T3, Endothelin-1 receptor; assay: Displacement of radioligand from ETA receptor (unknown origin) expressed in fall armyworm sf9 cell membranes
[6] = physchem
Description: Dissociation constant, pKa of the compound

[7] = target: T3, Endothelin-1 receptor; assay: Antagonist activity at human ETA receptor expressed in CHO cells in presence of ET1; type: cell-based
[8] = target: T3, Endothelin-1 receptor; assay: Antagonist activity at ETA receptor (unknown origin)
[9] = target: T2, Endothelin receptor type B; assay: Displacement of [125I]-ET1 from ETB receptor in rat cerebellum after 3 hrs by scintillation counting method; type: tissue-based
[10] = target: T3, Endothelin-1 receptor; assay: Displacement of 125I-ET1 from human placenta cell membrane ETA receptor expressed in Baculovirus-infected insect cells
[11] = target: T5, Endothelin-1 receptor (Rattus norvegicus, UniProt P26684); assay: Antagonist activity at rat aortic ring ETA receptor in presence of ET1; conditions: read-out: pA2 (converted)
T5 sequence (P26684 whole entry): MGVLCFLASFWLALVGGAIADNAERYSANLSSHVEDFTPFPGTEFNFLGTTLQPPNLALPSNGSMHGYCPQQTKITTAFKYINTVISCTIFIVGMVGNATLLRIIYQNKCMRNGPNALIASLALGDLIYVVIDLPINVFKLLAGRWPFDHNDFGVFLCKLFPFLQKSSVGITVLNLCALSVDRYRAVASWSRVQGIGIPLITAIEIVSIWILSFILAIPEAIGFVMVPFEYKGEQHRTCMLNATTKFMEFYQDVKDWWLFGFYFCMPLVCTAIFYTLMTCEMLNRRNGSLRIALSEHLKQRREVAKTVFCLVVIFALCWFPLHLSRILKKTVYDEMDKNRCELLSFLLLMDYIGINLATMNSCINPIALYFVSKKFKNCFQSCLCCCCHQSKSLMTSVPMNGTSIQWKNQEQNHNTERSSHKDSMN

[12] = target: T5, Endothelin-1 receptor; assay: Displacement of 125I-ET1 from ETA receptor in rat A7R5 cells; type: cell-based
[13] = target: T4, Endothelin receptor type B; assay: Displacement of [125I]-ET-1 from human ETB receptor expressed in CHO cell membranes after 2 hrs by scintillation counting
[14] = target: T3, Endothelin-1 receptor; assay: Displacement of [125I]-ET-1 from human ETA receptor expressed in CHO cell membranes after 2 hrs by scintillation counting
[15] = target: T4, Endothelin receptor type B; assay: Displacement of radioligand from ETB receptor in human placenta cell membranes
[16] = target: T4, Endothelin receptor type B; assay: Antagonist activity at ETB receptor (unknown origin)
[17] = target: T4, Endothelin receptor type B; assay: Antagonist activity at ETB receptor (unknown origin) in presence of ET1
[18] = target: T3, Endothelin-1 receptor; assay: Displacement of 125I-ET1 from ETA receptor (unknown origin) expressed in CHO cells; type: cell-based
[19] = target: T3, Endothelin-1 receptor; assay: Antagonist activity at ETA receptor (unknown origin) in presence of ET1
[20] = Oral bioavailability in dog; type: ADME, organism-based, Canis lupus familiaris; conditions: in vivo
[21] = Oral bioavailability in rat at 15 mg/kg; type: ADME, organism-based; conditions: in vivo
[22] = Oral bioavailability in dog at 15 mg/kg; type: ADME, organism-based, Canis lupus familiaris; conditions: in vivo

Cc1ccc(-c2c(NS(=O)(=O)c3ccc(C(C)(C)CO)cc3)ncnc2OCCOc2ncc(Br)cn2)cc1
IC50 [1]: 41 nM

COc1cccc(Oc2c(NS(=O)(=O)c3ccc(C(C)(C)C)cc3)ncnc2OCCO)c1
IC50 [2]: 1000 nM | IC50 [3]: 220 nM

COc1ccc(-c2nc(NS(=O)(=O)c3ccc(C(C)(C)C)cc3)c(Oc3ccccc3OC)c(OC[C@H](O)CO)n2)cc1
IC50 [4]: 69 nM | IC50 [5]: 6800 nM

CCCNS(=O)(=O)Nc1ncnc(OCCOc2ncc(Br)cn2)c1-c1ccc(Br)cc1
pKa [6]: 6.2 | IC50 [7]: 3.4 nM

COc1ccccc1Oc1c(NS(=O)(=O)CCc2ccccc2)nc(-c2ncccn2)nc1OCCO
IC50 [8]: 25 nM

Cc1noc(NS(=O)(=O)c2ccccc2-c2ccc(-c3ncco3)cc2)c1C
Ki [9]: 1900 nM

Cc1ccc(-c2c(NS(=O)(=O)c3ccc(C(C)(C)C)cc3)ncnc2OCCO)cc1
IC50 [10]: 1000 nM

CC(C)(C)c1ccc(S(=O)(=O)Nc2nc(-c3ncccn3)nc(OCCO)c2Oc2ccccc2O)cc1
IC50 [5]: 26000 nM

COc1ccccc1Oc1c(NS(=O)(=O)c2ccc(C(C)(C)C)cc2)nc(-c2ccccc2)nc1OCCO
Kb [11]: 126 nM | IC50 [5]: 800 nM

COc1cccc(Oc2c(NS(=O)(=O)c3ccc(SC)cc3)cc(C(=O)Nc3ccccc3)cc2OCCO)c1
IC50 [10]: > 100000 nM

COCCOc1nc(-c2ncccn2)nc(NS(=O)(=O)CCc2ccccc2)c1Oc1ccccc1OC
IC50 [12]: 3.6 nM

COc1ccc(Cl)c(Oc2c(NS(=O)(=O)c3ccc(C(C)(C)C)cc3)nc(N3CCOCC3)nc2OCCO)c1
IC50 [10]: 35 nM

COc1ccccc1Oc1c(NS(=O)(=O)c2ccc(C(C)C)cn2)nc(N2CCOCC2)nc1OCC#CCOC(=O)c1ccccn1
Kb [11]: 20 nM | IC50 [13]: 42 nM | IC50 [14]: 1 nM

COc1ccccc1Oc1c(NS(=O)(=O)c2ccc(C(C)(C)C)cc2)nc(N2CCOCC2)nc1OCCC(=O)Nc1ccccc1C(C)C
IC50 [1]: 0.86 nM | IC50 [12]: 63 nM

O=S(=O)(Nc1ncnc(OCCO)c1-c1ccc(Cl)cc1)c1ccc(Cl)cc1
IC50 [15]: 8500 nM | IC50 [5]: 10000 nM

COc1ccccc1Oc1c(NS(=O)(=O)c2ccc(C(C)C)cn2)nc(-c2ccncc2)nc1OC
IC50 [10]: 1.4 nM

COc1ccccc1Oc1c(OCCO)nc(-c2ncccn2)nc1N(C)S(=O)(=O)c1ccc(C(C)(C)C)cc1
IC50 [5]: > 100000 nM

COc1ccccc1Oc1c(NS(=O)(=O)c2ccc(C(C)(C)C)cc2)ncnc1OCCO
Kb [11]: 955 nM | IC50 [5]: 1500 nM

CSc1cnc(OCCOc2ncnc(NS(=O)(=O)c3ccc(C(C)(C)C)cc3)c2-c2cc3ccccc3s2)nc1
IC50 [12]: 0.026 nM

COc1ccccc1Oc1c(NS(=O)(=O)c2ccc(C(C)(C)C)cc2)nc(-c2ncccn2)[nH]c1=O
IC50 [5]: 133000 nM

COc1ccccc1Oc1c(NS(=O)(=O)c2ccc(C(C)C)cc2)nc(C(F)(F)F)nc1OCCO
IC50 [10]: 50 nM | IC50 [8]: 26 nM | IC50 [16]: 914 nM

COc1ccccc1Oc1c(NS(=O)(=O)c2ccccc2)nc(-c2ncccn2)nc1OCCO
IC50 [5]: 1500 nM

COc1ccccc1Cc1c(NS(=O)(=O)c2ccc(C(C)(C)C)cc2)ncnc1OCCO
IC50 [10]: 2000 nM

COc1ccccc1Oc1c(NS(=O)(=O)/C=C/c2ccccc2)nc(-c2ncccn2)nc1OCCO
IC50 [12]: 1.6 nM

O=S(=O)(Nc1ncnc(OCCO)c1-c1ccc(Cl)cc1)c1ccc(C(F)(F)F)cc1
Kb [11]: 1580 nM | IC50 [15]: 2000 nM | IC50 [5]: 18000 nM

COc1ccccc1Oc1c(NS(=O)(=O)c2ccc(C)cn2)nc(-c2ccncc2)nc1OC [AVOSENTAN]
IC50 [17]: 1200 nM | IC50 [15]: 600 nM | IC50 [18]: 1.4 nM | IC50 [19]: 3.1 nM

COc1ccccc1Oc1c(NS(=O)(=O)c2ccc(C(C)(C)C)cc2)nc(-c2ncccn2)nc1OCCO [BOSENTAN]
Kb [11]: 39.8 nM

COc1ccccc1Oc1c(NS(=O)(=O)c2ccc(C)cn2)nc(-c2ccnc(-c3nnn[nH]3)c2)nc1OCCO [CLAZOSENTAN]
IC50 [15]: 175 nM | IC50 [18]: 1.7 nM

CCc1cc(C2=C(C(=O)O)N(c3ccccc3C(F)(F)F)S(=O)(=O)c3ccccc32)cc2c1OCO2 [FANDOSENTAN]
bioavailability [20]: 100% | IC50 [14]: 0.5 nM

Cc1cc2c(cc1CC(=O)c1sccc1S(=O)(=O)Nc1onc(C)c1Cl)OCO2 [SITAXENTAN]
bioavailability [21]: 60 to 100% | bioavailability [22]: 60 to 100%

COc1ccccc1Oc1c(NS(=O)(=O)c2ccc(C(C)C)cn2)nc(-c2ccnc(-c3nnn[nH]3)c2)nc1OCCO [TEZOSENTAN]
IC50 [15]: 21 nM | IC50 [18]: 18 nM
